Experimental data published in publication PMC6815956, “Bioinspired Self-assembling Peptide Hydrogel with Proteoglycan-assisted Growth Factor Delivery for Therapeutic Angiogenesis” (Theranostics, 2019).
One block for each substance: values may come before it.

Legend:
[1] = compared with VEGF; ref [20]; cited from earlier work
[2] = GF release profile (ELISA); type: physicochemical; settings: from GAG-assisted QLK/LRK hydrogel, PBS w/ 0.05 % Tween 20, 1 % BSA, 37 °C, n = 6
Experimental: (§1) At specific time intervals, the supernatants were collected, stored at -80 °C, and fresh release buffer was compensated. […] After adding the stop solution, the absorbance of the hydrogel at 450/540 nm was recorded by SpectraMax Plus 384 Microplate Reader.
(§2) It was the major challenge for scaffold-based GF delivery that how to maintain the release rate of incorporated GFs.

HUVECs = experiment: Endothelial tube-like formation assay; type: cell-based, human; settings: GF released from hydrogel (200 ng, 3 days), 8 h, n = 8, vs basal medium
Experimental: To identify the angiogenic ability of released GFs in vitro, 80 µL of GF-depleted peptide hydrogel was introduced to a pre-cooled 96-well plate using chilled pipet tips. The gel was incubated for 30 min at 37 °C with 5 % CO2 to induce gelation. [drawing 4] HUVECs were first seeded on GF-depleted peptide hydrogel with 100 μL of culture medium and incubated for 8 h. […] Finally, the differentiations of HUVECs were observed periodically for 8 h under an inverted phase contrast microscope. Angiogenesis Analyzer ImageJ (NIH) was employed for quantification and the images were taken in ten random fields per sample.
Figure 5 The human umbilical vein endothelial cells (HUVECs) tube-like formation assay. […] (B) The original images were analyzed by Angiogenesis Analyzer for ImageJ (NIH), and the quantified result of total vessels length, total meshes area, total branches intervals were calculated (all the values were normalized with the analyzed area). […] Error bars show ± S.D. for total n = 8.

[3] = GF loading efficiency (ELISA); type: physicochemical; settings: GF/HS complex in QLK/LRK peptide hydrogel, n = 6
Experimental: as §1, §2

[4] = Isothermal titration calorimetry, binding of HS to LRK; settings: ITC, 25 °C, PBS
Experimental: Isothermal titration calorimetry (ITC) measurements were operated at 25 °C using a Micro ITC-200 microcalorimeter (GE Healthcare Life Sciences). The procedure was performed by titrating 0.35 mM HS from a syringe into 0.2 mM RADA16-LRK peptide solution loaded in a cell (both in PBS). In the next step, the data were integrated after background correction and fitted to a curve to obtain the binding constant.
To test the binding affinity between HS and […] peptide sequence, the molecular interactions between LRK sequence and HS were studied by ITC. Heat changes were recorded when the increments of HS solution were titrated drop by drop into functionalized peptide LRK solution. The binding constant Ka = [drawing 5] M^-1 was then obtained by approximating the integrated data into a fitting curve (Figure 4A).

[5] = Circular dichroism spectroscopy (secondary structure); type: physicochemical; settings: 0.05 % (w/v)
Experimental: Circular dichroism (CD) spectra were collected on a CD Spectrometer Model 410 (AVIV Biomedical Inc.) to explore the secondary structure of SAPs. The cuvette quartz cell's path length was 1mm with a wavelength range between 190-260 nm at ambient temperature. The 0.05 % (w/v) RADA16-QLK, RADA16-LRK, and HS solution were allowed to store at 4 °C overnight to ensure complete self-assembly before measurement.
(§3) TEM images were obtained to identify the morphological change of nanofiber microstructure before and after enzymatic crosslinking. […] From the findings of TEM and AFM images, the interwoven nanofibers with diameters of 10-20 nm and pore sizes between 10-200 nm were similar to natural ECM fibers in both appearances and scales (Figure 2B-E).

[6] = TEM and AFM of nanofibers; type: physicochemical; settings: 0.05 % (w/v); for fiber morphology: TEM
Experimental: Transmission electron microscopy (TEM) was used to observe the microstructure of peptides with a Hitachi HT7700 (120 kV) Bio-TEM. The 0.05 % (w/v) RADA16-QLK before and after microbial transglutaminase (mTG) crosslinking were prepared at pH 7. The TEM samples were prepared by dropping 10 μL of peptide solution on the copper grid coated with carbon film and stained with 2 % phosphotungstic acid solution. The morphology of the peptide scaffolds was captured using atomic force microscopy (AFM) (DI Dimension 3100, Veeco Instruments Inc, US) in dynamic force mode. In brief, 0.05 % (w/v) peptide solution was sprayed on the surface of a cleaved mica for 5 min, the surface was then washed with sterilized water for several times and blown dry by anhydrous nitrogen.
as §3

[7] = Oscillatory rheology, frequency sweep; type: physicochemical; settings: for storage modulus (G'): frequency sweep, 1 % strain
Experimental: (§4) The mechanical properties of the hydrogel scaffold were measured using a rheometer (Anton Paar, US). Measurements for the dynamic oscillatory frequency sweep (0.1-100 Hz) were performed at 1% strain amplitude and 25 °C. Shear recovery (1 % strain for 60 s, 50 % strain for 30 s, 1 % strain for 60 s) was conducted for three cycles at 25 °C. All measurements were performed on a 25-mm cone plate and the Anton Paar Rheometer software was used for analysis.
(§5) The 2 % (w/v) RADA16-QLK and RADA16-LRK peptide solutions were mixed in a volume ratio of 3:1, and then introduced into a self-made cylinder mold. PBS buffer or cell culture medium was further added to trigger sol-gel transition. For the crosslinking process, the self-assembled cylindrical hydrogel was soaked into mTG solution (20 U/mL PBS) for 12 h at 38 °C. 40 µL of peptide hydrogel was transferred into a 96-well plate followed by 200 µL of PBS added to each well and incubated at 37 °C. At predetermined time points (3, 12, 24, 72, 168, 336, 504, 672, and 840 h), the supernatant was completely removed by syringe and replenished with fresh PBS. The collected supernatant was then stored at -80 °C for further tests. Ninhydrin reagent solution was employed to quantify the disintegrated peptide amino acid sequences of the hydrogel according to manufacturer's protocols. After the addition of 95 % ethanol to stop the reaction, the absorbance of the hydrogel at 570 nm was measured by a SpectraMax Plus 384 Microplate Reader.
(§6) To test the mechanical stability and stiffness of the peptide hydrogel, frequency sweep and shear recovery measurements were conducted. […] The storage modulus (G') of QLK hydrogel increased from 1000 Pa to 5000 Pa, while the G' of QLK/LRK hydrogel increased from 400 Pa to 2500 Pa (Figure 3A-B). At least a five-fold enhancement in rheological stiffness and the mechanical properties of QLK-functionalized hydrogel were adjustable with mTG treatment. The concentration of transglutaminase also had influence on the mechanical properties of the hydrogel. Basically, the storage modulus (G') of the hydrogel was increased with the increase of mTG concentration. It was measured at pressure levels of 1 kPa, 1.5 kPa, 3 kPa, 5 kPa with respect to the concentrations of 0 U/mL, 5 U/mL, 10 U/mL, 20 U/mL.
Figure 3 Rheological properties of peptide hydrogel.

[8] = Shear recovery (continuous step strain); type: physicochemical; settings: 1 % strain 60 s, 50 % strain 30 s, three cycles, 25 °C, n = 6
Experimental: as §4, §6

[9] = In vitro disintegration in cell culture medium; type: physicochemical; settings: 2 % (w/v) hydrogel, with and without mTG (20 U/mL), n = 6
Experimental: as §5
To evaluate the stability of the peptide hydrogel in PBS buffer, Ninhydrin reagent solution was used to quantify the disintegration rate of peptide hydrogel in vitro. […] After this initial period of rapid disintegration, the kinetics slowed down. […]

[10] = In vitro disintegration in PBS (ninhydrin); type: physicochemical; settings: 2 % (w/v) hydrogel, 37 °C, ninhydrin 570 nm, n = 6; for total disintegration in PBS: 35 days; for disintegration in PBS: first three days
Experimental: as §5
To evaluate the stability of the peptide hydrogel in PBS buffer, Ninhydrin reagent solution was used to quantify the disintegration rate of peptide hydrogel in vitro. […] After this initial period of rapid disintegration, the kinetics slowed down. […] The disintegration rate of hydrogel was slower in the crosslinking group when compared with that in the non-crosslinking group during the investigative time period. Next, we are interested in figuring out if different culture condition will result in different peptide disintegration rate. Thus, another group of peptides incubated in cell culture medium was also conducted for comparison.

Substance: HGF: Recombinant Human HGF (HEK293 derived); hepatocyte growth factor
binding affinity with heparin or HS (in words) [1]: higher binding affinity with heparin or HS than VEGF | cumulative release, total ([2]; 28 days, ELISA): approximately 46% | cumulative release, initial ([2]; day 3, ELISA): 25% | tube-like formation of HUVECs (HUVECs): positive effect on tube-like formation of HUVECs | loading efficiency [3]: ~82.5 ± 2.1%

HS binding (in words) [4]: good HS binding consensus sequence
Substance: AcN-RADARADARADARADAGGLRKKLGKA-CONH

secondary structure by CD ([5]; 4 °C overnight, ambient temperature, without mTG): β-sheet secondary structure | secondary structure by CD ([5]; after mTG crosslinking): β-sheet secondary structure | CD negative maximum peak ([5]; after mTG crosslinking): 216 nm | CD positive maximum peak ([5]; after mTG crosslinking): ~195 nm | CD negative maximum peak ([5]; without mTG): 216 nm | CD positive maximum peak ([5]; without mTG): ~195 nm | nanofiber diameter ([6]; TEM and AFM, pH 7): 10-20 nm | pore size of fibrous network ([6]; TEM and AFM, pH 7): 10-200 nm | fiber morphology ([6]; pH 7, before enzymatic crosslinking): Sparsely-wired fiber entanglements | enhancement of stiffness / storage modulus by mTG ([7]; after vs before mTG, 25 °C): five-fold increase of storage modulus | storage modulus (G') ([7]; 25 °C, after mTG crosslinking): 5000 Pa | storage modulus (G') ([7]; 25 °C, before mTG crosslinking): 1000 Pa | storage modulus (G') vs mTG concentration ([7]; mTG 0 U/mL): 1 kPa | storage modulus (G') vs mTG concentration ([7]; mTG 5 U/mL): 1.5 kPa | storage modulus (G') vs mTG concentration ([7]; mTG 10 U/mL): 3 kPa | storage modulus (G') vs mTG concentration ([7]; mTG 20 U/mL): 5 kPa | total disintegration in PBS ([10]; mTG-crosslinked (20 U/mL)): approximately 61% | total disintegration in PBS ([10]; non-crosslinked): ~82% | disintegration in PBS ([10]; mTG-crosslinked (20 U/mL)): 20% | disintegration in PBS ([10]; non-crosslinked): 40%
Substance: AcN-RADARADARADARADAGGQQLK-NH2 [self-assembling peptide with transglutaminase-crosslinkable QQLK motif; forms hydrogel]
fiber morphology ([6]; pH 7, after mTG (20 U/mL) crosslinking): more densely-compacted nanofibrous entanglements and more continuous self-assembling fibers | shear thinning / shear recovery [8]: shear thinning and a potential shear recovery ability | disintegration in cell culture medium vs PBS [9]: degraded faster in the culture medium condition compared to that in PBS, especially in the group without crosslinking

Substance: VEGF
tube-like formation of HUVECs (HUVECs): positive effect on tube-like formation of HUVECs
